Earlier results on one compound are cited in US20130059872A1, “POLYMORPHS OF ALOGLIPTIN BENZOATE” (MAPI PHARMA LIMITED, priority 2010, published 2013).

The conditions of this series: DSC data according to WO 2007/035372; recrystallization at 132° C., melt onset at 183° C.

Take `Cn1c(=O)cc(N2CCC[C@@H](N)C2)n(Cc2ccccc2C#N)c1=O` [amorphous form 1 of WO 2007/035372, alogliptin benzoate]: the “solid-state stability of the amorphous phase on heating” value is listed as “crystallized to crystalline form A during heating”.
